Results as given in ChEMBL document CHEMBL1201862, “PubChem BioAssay data set” (2004).
The source made the active and inactive calls.

Experiments:
[1] = molecular target: T1, Microphthalmia-associated transcription factor (Homo sapiens, UniProt O75030); assay: reducers of TRPM1 reporter luminescence, concentration series – cell-based, SK-MEL-5, cherry-picked, set 3, MITF inhibitor project, dose response (AID 493073); type: functional;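 note: SK-MEL-5 melanoma cells with luciferase driven by the MITF target TRPM1 promoter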
T1 sequence (O75030 whole entry): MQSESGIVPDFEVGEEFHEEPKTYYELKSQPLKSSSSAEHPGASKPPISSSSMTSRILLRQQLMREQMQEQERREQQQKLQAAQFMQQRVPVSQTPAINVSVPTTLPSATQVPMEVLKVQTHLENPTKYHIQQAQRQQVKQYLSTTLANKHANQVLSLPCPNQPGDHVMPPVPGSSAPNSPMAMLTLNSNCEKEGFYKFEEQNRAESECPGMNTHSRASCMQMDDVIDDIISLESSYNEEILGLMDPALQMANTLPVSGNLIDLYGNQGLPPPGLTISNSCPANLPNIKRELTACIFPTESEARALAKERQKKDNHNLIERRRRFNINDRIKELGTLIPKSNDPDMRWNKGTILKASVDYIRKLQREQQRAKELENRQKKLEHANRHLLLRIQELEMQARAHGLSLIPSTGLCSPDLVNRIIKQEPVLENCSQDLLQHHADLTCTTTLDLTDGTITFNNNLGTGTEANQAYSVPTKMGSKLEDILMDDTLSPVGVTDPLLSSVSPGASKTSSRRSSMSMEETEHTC

Caspase-7 = molecular target: T2, Caspase-7 (Homo sapiens, UniProt P55210); assay: caspase-7 enzyme inhibition, selectivity check – biochemical, DEVD-R110 fluorescence, cherry-pick, selectivity assay for caspase-6 inhibitor project, dose response (AID 743295); type: functional
T2 sequence (P55210 whole entry): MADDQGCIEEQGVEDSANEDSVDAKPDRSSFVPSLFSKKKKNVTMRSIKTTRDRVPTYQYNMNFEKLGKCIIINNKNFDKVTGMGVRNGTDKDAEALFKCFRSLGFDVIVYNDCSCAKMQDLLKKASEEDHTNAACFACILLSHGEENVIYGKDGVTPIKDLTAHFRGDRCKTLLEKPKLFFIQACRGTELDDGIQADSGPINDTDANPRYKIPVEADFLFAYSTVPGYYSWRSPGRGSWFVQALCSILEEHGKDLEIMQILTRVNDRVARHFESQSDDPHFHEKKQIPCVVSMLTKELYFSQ

[2] = molecular target: Inhibitor of nuclear factor kappa-B kinase subunit epsilon (Homo sapiens, UniProt Q14164); assay: Navigating the Kinome. Panel member name: IKBKE; type: functional
[3] = molecular target: Receptor-type tyrosine-protein kinase FLT3 (Homo sapiens, UniProt P36888); type: functional;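 note: FLT3 was tested as one member of a kinome-wide kinase panel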
[4] = molecular target: Serine/threonine-protein kinase 17A (Homo sapiens, UniProt Q9UEE5); type: functional
[5] = molecular target: Serine/threonine-protein kinase pim-1 (Homo sapiens, UniProt P11309); type: functional
[6] = molecular target: Ribosomal protein S6 kinase alpha-3 (Homo sapiens, UniProt P51812); type: functional;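 note: measured within a kinome-wide profiling panel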
[7] = molecular target: Calcium/calmodulin-dependent protein kinase type II subunit gamma (Homo sapiens, UniProt Q13555); type: functional
[8] = molecular target: Epidermal growth factor receptor (Homo sapiens, UniProt P00533)
[9] = molecular target: Dual specificity tyrosine-phosphorylation-regulated kinase 4 (Homo sapiens, UniProt Q9NR20); type: functional
[10] = molecular target: BDNF/NT-3 growth factors receptor (Homo sapiens, UniProt Q16620); type: functional;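 note: NTRK2 measured as one member of a broad kinome-wide kinase profiling panel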
[11] = molecular target: Cyclin-dependent kinase 2 (Homo sapiens, UniProt P24941); type: functional;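 note: CDK2 measured as one member of a broad kinome profiling panel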
[12] = molecular target: Macrophage-stimulating protein receptor (Homo sapiens, UniProt Q04912); assay: Navigating the Kinome. Panel member name: MST1R; type: functional
Sequence of Macrophage-stimulating protein receptor (Q04912 25-304 limits assumed): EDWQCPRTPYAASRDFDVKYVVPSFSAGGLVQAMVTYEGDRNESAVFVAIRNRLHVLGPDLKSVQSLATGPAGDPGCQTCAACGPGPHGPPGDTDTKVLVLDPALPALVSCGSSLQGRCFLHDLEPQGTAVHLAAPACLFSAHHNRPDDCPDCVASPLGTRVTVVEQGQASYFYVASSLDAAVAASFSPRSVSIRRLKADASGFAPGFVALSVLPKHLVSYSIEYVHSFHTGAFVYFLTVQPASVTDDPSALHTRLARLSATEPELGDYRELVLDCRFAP
Sequence of Macrophage-stimulating protein receptor (Q04912 310-1400 limits assumed): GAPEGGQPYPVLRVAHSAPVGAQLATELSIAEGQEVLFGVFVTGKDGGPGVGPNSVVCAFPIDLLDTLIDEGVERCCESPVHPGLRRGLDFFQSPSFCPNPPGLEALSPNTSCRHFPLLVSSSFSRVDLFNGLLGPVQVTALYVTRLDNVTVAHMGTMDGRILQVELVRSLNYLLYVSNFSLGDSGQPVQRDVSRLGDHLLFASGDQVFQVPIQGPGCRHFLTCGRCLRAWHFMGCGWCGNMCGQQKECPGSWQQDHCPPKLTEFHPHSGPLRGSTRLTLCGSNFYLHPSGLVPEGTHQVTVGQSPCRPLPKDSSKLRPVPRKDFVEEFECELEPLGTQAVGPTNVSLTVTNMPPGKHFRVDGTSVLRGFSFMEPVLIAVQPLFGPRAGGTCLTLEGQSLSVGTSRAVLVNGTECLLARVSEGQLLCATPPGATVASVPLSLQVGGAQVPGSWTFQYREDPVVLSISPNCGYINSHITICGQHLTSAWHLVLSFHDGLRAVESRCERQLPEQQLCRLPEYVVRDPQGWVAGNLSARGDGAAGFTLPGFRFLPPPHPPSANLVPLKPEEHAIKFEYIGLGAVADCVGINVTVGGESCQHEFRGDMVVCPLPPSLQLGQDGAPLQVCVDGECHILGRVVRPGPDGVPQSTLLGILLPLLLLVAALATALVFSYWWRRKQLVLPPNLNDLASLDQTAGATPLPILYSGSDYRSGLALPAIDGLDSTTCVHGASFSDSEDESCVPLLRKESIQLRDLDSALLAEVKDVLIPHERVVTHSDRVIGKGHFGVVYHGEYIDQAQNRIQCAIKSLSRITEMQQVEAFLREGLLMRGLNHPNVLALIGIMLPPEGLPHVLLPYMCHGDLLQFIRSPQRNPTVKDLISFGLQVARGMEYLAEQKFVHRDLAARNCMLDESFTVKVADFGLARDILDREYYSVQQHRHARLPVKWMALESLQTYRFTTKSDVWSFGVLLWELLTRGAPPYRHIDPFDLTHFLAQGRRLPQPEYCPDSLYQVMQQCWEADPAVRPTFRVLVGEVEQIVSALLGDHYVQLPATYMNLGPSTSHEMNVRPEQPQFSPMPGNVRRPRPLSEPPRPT

[13] = molecular target: Vascular endothelial growth factor receptor 1 (Homo sapiens, UniProt P17948); type: functional;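 note: measured within a kinome-wide profiling panel, FLT1 as the panel member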
Sequence of Vascular endothelial growth factor receptor 1 (P17948 whole entry): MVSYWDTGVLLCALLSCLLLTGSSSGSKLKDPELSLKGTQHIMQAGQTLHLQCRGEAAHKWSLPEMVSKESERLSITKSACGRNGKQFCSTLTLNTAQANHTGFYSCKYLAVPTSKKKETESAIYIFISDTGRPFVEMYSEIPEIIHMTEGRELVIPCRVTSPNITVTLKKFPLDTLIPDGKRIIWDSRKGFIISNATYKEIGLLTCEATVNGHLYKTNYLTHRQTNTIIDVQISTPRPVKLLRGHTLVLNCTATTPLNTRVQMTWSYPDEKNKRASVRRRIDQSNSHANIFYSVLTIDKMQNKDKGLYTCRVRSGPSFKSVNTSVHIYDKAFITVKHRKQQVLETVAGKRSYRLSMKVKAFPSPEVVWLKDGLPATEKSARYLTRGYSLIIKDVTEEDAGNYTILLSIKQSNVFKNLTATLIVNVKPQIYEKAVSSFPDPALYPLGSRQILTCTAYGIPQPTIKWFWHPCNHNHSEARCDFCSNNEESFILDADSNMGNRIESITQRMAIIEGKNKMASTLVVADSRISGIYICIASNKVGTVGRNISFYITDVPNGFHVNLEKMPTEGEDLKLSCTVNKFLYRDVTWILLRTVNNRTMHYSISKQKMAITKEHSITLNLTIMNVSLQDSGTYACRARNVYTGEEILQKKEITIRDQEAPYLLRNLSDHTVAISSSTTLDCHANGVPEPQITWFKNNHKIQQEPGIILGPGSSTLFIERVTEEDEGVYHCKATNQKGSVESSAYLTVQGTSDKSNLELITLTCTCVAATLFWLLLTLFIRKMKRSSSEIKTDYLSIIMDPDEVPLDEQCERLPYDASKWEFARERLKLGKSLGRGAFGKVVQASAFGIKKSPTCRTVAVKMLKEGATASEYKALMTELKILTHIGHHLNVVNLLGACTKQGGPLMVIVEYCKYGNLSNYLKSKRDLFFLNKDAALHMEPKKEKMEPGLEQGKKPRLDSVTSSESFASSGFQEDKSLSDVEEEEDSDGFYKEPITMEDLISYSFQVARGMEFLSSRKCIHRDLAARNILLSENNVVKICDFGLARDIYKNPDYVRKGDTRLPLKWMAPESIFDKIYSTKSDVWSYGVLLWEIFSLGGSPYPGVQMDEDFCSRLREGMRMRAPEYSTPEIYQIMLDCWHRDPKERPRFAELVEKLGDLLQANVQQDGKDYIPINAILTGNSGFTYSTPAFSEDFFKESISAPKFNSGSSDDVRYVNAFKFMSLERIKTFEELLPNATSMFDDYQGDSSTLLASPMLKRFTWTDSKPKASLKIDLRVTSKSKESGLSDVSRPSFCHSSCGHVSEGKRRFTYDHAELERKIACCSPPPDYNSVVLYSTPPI

[14] = molecular target: RAC-gamma serine/threonine-protein kinase (Homo sapiens, UniProt Q9Y243); type: functional
[15] = molecular target: Serine/threonine-protein kinase D2 (Homo sapiens, UniProt Q9BZL6); type: functional;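 note: measured against PRKD2 as one member of a kinome-wide kinase profiling panel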
[16] = molecular target: Proto-oncogene tyrosine-protein kinase Src (Homo sapiens, UniProt P12931); type: functional;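 note: SRC entry within a kinome-wide kinase profiling panel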
Sequence of Proto-oncogene tyrosine-protein kinase Src (P12931 2-536 limits assumed): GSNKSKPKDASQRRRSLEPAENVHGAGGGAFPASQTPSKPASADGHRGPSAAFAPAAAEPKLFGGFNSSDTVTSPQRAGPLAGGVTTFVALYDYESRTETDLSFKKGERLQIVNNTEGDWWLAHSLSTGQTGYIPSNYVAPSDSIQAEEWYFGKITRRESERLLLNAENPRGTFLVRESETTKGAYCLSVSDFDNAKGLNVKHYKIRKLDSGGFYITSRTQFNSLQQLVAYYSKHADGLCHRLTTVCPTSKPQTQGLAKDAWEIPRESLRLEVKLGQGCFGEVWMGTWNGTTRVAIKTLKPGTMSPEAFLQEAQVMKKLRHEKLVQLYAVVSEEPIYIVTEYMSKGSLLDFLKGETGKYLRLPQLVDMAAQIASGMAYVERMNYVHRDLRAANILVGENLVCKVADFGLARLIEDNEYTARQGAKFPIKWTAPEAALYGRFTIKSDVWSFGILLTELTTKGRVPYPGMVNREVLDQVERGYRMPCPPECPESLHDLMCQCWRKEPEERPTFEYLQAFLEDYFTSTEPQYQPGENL

[17] = molecular target: Tyrosine-protein kinase Lyn (Homo sapiens, UniProt P07948); type: functional;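 note: lyn as one member of a kinase panel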
[18] = molecular target: Ribosomal protein S6 kinase alpha-5 (Homo sapiens, UniProt O75582); type: functional
[19] = molecular target: Serine/threonine-protein kinase pim-2 (Homo sapiens, UniProt Q9P1W9); type: functional;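 note: value comes from a broad kinase panel profiling study in which PIM2 was one of the panel members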
Sequence of Serine/threonine-protein kinase pim-2 (Q9P1W9 whole entry): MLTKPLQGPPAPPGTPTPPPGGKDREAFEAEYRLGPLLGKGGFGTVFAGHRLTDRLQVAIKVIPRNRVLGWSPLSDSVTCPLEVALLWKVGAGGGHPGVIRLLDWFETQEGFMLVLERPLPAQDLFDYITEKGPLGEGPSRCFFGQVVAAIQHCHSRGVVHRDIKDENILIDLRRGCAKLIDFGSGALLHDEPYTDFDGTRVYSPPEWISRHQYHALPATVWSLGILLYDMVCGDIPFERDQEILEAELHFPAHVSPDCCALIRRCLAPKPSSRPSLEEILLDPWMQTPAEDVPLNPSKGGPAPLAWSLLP

[20] = molecular target: Platelet-derived growth factor receptor alpha (Homo sapiens, UniProt P16234); assay: Navigating the Kinome. Panel member name: PDGFRA; type: functional
[21] = molecular target: Protein kinase C delta type (Homo sapiens, UniProt Q05655); type: functional
[22] = molecular target: Fibroblast growth factor receptor 1 (Homo sapiens, UniProt P11362); type: functional
Sequence of Fibroblast growth factor receptor 1 (P11362 whole entry): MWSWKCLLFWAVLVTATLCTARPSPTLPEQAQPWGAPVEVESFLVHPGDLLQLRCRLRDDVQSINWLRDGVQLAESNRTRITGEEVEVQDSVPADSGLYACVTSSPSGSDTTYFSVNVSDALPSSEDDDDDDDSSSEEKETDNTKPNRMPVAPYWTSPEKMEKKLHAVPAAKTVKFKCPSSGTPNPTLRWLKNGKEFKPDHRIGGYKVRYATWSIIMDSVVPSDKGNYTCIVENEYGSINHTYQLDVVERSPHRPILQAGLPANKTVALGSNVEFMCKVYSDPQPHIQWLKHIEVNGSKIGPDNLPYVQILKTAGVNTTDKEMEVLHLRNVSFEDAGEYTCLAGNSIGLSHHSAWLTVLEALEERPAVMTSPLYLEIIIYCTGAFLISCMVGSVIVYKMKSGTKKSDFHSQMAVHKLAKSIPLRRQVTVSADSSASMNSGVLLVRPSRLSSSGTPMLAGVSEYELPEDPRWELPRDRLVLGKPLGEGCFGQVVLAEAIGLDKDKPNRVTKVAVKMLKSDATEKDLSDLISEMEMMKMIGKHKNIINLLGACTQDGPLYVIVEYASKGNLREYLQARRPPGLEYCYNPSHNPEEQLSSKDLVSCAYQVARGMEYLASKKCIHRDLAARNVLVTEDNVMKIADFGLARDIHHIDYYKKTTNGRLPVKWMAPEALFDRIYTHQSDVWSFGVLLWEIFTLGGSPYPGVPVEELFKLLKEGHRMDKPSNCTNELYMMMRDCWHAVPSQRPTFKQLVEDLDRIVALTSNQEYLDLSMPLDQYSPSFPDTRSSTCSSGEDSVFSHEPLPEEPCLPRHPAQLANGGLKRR

[23] = molecular target: Serine/threonine-protein kinase TAO1 (Homo sapiens, UniProt Q7L7X3); type: functional
[24] = molecular target: Cyclin-dependent kinase 9 (Homo sapiens, UniProt P50750); type: functional;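 note: value from the CDK9 entry of a kinome-spanning kinase panel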
[25] = molecular target: Hepatocyte growth factor receptor (Homo sapiens, UniProt P08581); type: functional;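 note: kinase panel profiling across the kinome, with MET as the panel member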
[26] = molecular target: Tyrosine-protein kinase ITK/TSK (Homo sapiens, UniProt Q08881); type: functional;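 note: affinity for ITK measured as one member of a broad kinase panel profiling binding across the kinome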
[27] = molecular target: Casein kinase II subunit alpha (Homo sapiens, UniProt P68400); type: functional
[28] = molecular target: Rho-associated protein kinase 1 (Homo sapiens, UniProt Q13464); type: functional;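 note: measured within a broad kinome-wide panel profiling many kinases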
[29] = molecular target: STE20-like serine/threonine-protein kinase (Homo sapiens, UniProt Q9H2G2); type: functional
[30] = molecular target: Calcium/calmodulin-dependent protein kinase type II subunit delta (Homo sapiens, UniProt Q13557); type: functional
SUMO-activating enzyme = SUMO-activating enzyme (Homo sapiens, UniProt Q9UBT2); assay: blockers of UBC9-mediated SUMO conjugation – biochemical, AlphaScreen, SUMOylation inhibitor project, confirmation (AID 2018); type: functional
[31] = molecular target: Serine/threonine-protein phosphatase (Homo sapiens, UniProt Q9BPW0); assay: inhibition of protein phosphatase 5 activity – biochemical, fluorescence, dose response (AID 2395)
Sequence of Serine/threonine-protein phosphatase (Q9BPW0 whole entry): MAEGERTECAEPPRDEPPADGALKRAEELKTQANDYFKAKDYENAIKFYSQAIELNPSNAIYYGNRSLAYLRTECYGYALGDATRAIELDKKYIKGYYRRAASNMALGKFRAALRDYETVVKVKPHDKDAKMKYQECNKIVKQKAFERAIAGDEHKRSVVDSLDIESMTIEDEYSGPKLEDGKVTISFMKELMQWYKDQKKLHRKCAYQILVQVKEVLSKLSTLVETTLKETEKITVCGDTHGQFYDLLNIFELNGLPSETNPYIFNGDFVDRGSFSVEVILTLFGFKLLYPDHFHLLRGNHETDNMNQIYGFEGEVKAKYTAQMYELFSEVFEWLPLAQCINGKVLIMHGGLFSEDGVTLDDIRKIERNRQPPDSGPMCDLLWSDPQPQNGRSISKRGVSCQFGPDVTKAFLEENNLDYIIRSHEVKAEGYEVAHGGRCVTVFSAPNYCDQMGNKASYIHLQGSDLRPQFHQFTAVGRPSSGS

`Cc1c(NC(=O)C(C)OC(=O)c2ccc([N+](=O)[O-])s2)c(=O)n(-c2ccccc2)n1C` (stereo not drawn) was tested, and the AC50 [1] was 34.1 µM (active) and the AC50 (Caspase-7) was 17.5 µM (active).

`CC(N)C1CCC(C(=O)Nc2ccnc3[nH]ccc23)CC1` (stereo not drawn) was tested, and the Ki [2] was > 3.16 µM (inactive), the Ki [3] was > 3.16 µM (inactive) and the Ki [4] was 3.98 µM (active). The Ki [5] was > 6.31 µM (inactive), the Ki [6] was 1.26 µM (active) and the Ki [7] was > 6.31 µM (inactive). The Ki [8] was > 2 µM (inactive), the Ki [9] was > 7.94 µM (inactive) and the Ki [10] was > 3.16 µM (inactive). The Ki [11] was 1 µM (active), the Ki [12] was 2 µM (active) and the Ki [13] was > 2 µM (inactive). For the same compound, the Ki [14] was 2.51 µM (active), the Ki [15] was 1 µM (active) and the Ki [16] was > 2 µM (inactive). The Ki [17] was > 1.58 µM (inactive), the Ki [18] was 0.631 µM (active) and the Ki [19] was > 1.58 µM (inactive). The Ki [20] was > 2.51 µM (inactive), the Ki [21] was 0.158 µM (active) and the Ki [22] was > 3.98 µM (inactive). The Ki [23] was > 7.94 µM (inactive), the Ki [24] was > 1.58 µM (inactive) and the Ki [25] was > 2.51 µM (inactive). For the same compound, the Ki [26] was > 5.01 µM (inactive), the Ki [27] was > 6.31 µM (inactive) and the Ki [28] was 0.158 µM (active). The Ki [29] was 5.01 µM (active) and the Ki [30] was 3.16 µM (active).

In the case of `COc1cc(Br)c(C(=O)c2nccc3cc(OC)c(OC)cc23)cc1OC`, the IC50 (SUMO-activating enzyme) is reported as 0.42 µM (active) and the IC50 [31] is reported as 5.92 µM (active).
